Measurements as given in patent US12201656B2, “Selection of bacterial strains useful in allergy treatment” (BioGaia AB, priority 2016, dated 2025).

System: phosphorylated PKC (pPKC)
Assay: Mouse enteroid experiment, pPKC Western blot
Type: cell-based
Details: DGK inhibitor 2 μM in the presence of wild-type L. reuteri PTA-6475 conditioned media, 45 min
Description: FIGS. 5a and 5b illustrate that a commercially available DagK inhibitor (DGK inhi) prevents L. reuteri derived-DagK mediated protein kinase C (PKC) phosphorylation in mouse enteroids. FIG. 5a illustrates a Western blot analysis showing proteins isolated from mouse ileal enteroids of 10 week-old germ free (GF) male mice treated with only media control (LDM-4), WT Lr (WT Lr grown in LDM4), DagK inhibitor and DagK inhibitor with WT Lr for 45 min targeting mammalian phosphorylated PKC (pPKC). 10 μg proteins were loaded into each well of an SDS gel. The pPKC synthesis ratio was obtained by image-J analysis where pPKC of […] was set to 1 and used as baseline. FIG. 5b Mean values of n=3 showing pPKC protein concentration (loaded 10 μg) and quantified by densitometry using image-J. GF control groups were set to 1. *P<0.05, **P<0.01, ***P<0.001. n=10 mice per group. One-Way analysis of variance with Bonferroni correction.
Mouse enteroids (contains only intestinal epithelial layer) were derived from 10 week-old germ free (GF) BALB/c mouse. The enteroids were grown to form a monolayer and were induced with LDM4 media (control), wild-type L. reuteri PTA-6475 conditioned media (50 to 3 kDa cut off), diacylglycerol kinase (DGK) inhibitor (2 μM) only or DGK inhibitor (2 μM) with wild-type L. reuteri PTA-6475 conditioned media (CM; 50 to 3 kDa cut off). […]

Cc1nc2sccn2c(=O)c1CCN1CCC(=C(c2ccccc2)c2ccc(F)cc2)CC1 [DGK inhibitor, 6-[2-(4-[(4-fluorophenyl)phenylmethylene]-1-piperidinyl)ethyl]-7-methyl-5H-thiazolo-[3,2-a]pyrimidine-5-one]
PKC phosphorylation: increased PKC phosphorylation
